The source of these data is PubChem BioAssay (NCI).

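Step 1: Grow cells in 96-well plates. Step 2: Expose to compound for 48 hours at 5 concentrations. Step 3: Interpolate endpoints linearly; if unreached, use highest concentration. TGI: total growth inhibition.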 Some results are limits rather than exact numbers.

Among the test systems are NCI-H460 lung; DU-145 prostate; HOP-62 NSCLC; HL-60(TB) leukemia; SNB-19 CNS; SF-295 CNS; SN12C renal; KM12 colon; OVCAR-4 ovarian; CAKI-1 renal; UACC-62 melanoma; EKVX NSCLC; TK-10 renal; SNB-75 CNS; MDA-N; SK-MEL-28 melanoma; A498 renal.
Assay in all cases: NCI-60 cell line screen, 48 h

With `CC1=N[C@](C)(C2CC3C=CC2C3=O)COC1=O` (some centres undefined), the TGI with NCI-H460 lung, in the assay on DU-145 prostate, in the assay on HOP-62 NSCLC, in the assay on HL-60(TB) leukemia, with SNB-19 CNS and with SF-295 CNS was more than 100 µM in each case. Moreover, the TGI in the assay with SN12C renal, with KM12 colon, with OVCAR-4 ovarian, with CAKI-1 renal, with UACC-62 melanoma and in the assay with EKVX NSCLC was more than 100 µM throughout. For the same compound, the TGI in the assay with TK-10 renal, in the assay on SNB-75 CNS, in the assay with MDA-N, in the assay with SK-MEL-28 melanoma and in the assay with A498 renal was more than 100 µM throughout.

`COC1=CC(=O)c2c(O)c3c(c(O)c2C1=O)C=C(C)OC3O` (centres undefined): the TGI in the assay with NCI-H460 lung is 3.18 µM; in the assay with DU-145 prostate, 2.18 µM; in the assay on HOP-62 NSCLC it was 7.04 µM; with HL-60(TB) leukemia, more than 23 µM; in the assay with SNB-19 CNS, 7.12 µM; in the assay with SF-295 CNS, 5.06 µM. For the same compound, the TGI in the assay on SN12C renal was found to be 2.08 µM; with KM12 colon, 12.2 µM; in the assay with OVCAR-4 ovarian, 4.39 µM; in the assay on CAKI-1 renal it was 14.5 µM; with UACC-62 melanoma it was 1.85 µM; with EKVX NSCLC it was 20.2 µM. For the same compound, the TGI with TK-10 renal stood at 7.9 µM; in the assay on SNB-75 CNS, 3.97 µM; in the assay with MDA-N, 3.08 µM; in the assay on SK-MEL-28 melanoma, 3.65 µM; with A498 renal it was 4.91 µM.

Regarding `c1ccc2cc(CNCCOCCOCCNCc3ccc4ccccc4c3)ccc2c1`, the TGI turned out to be 3.24 µM in the assay with NCI-H460 lung; 3.37 µM in the assay with DU-145 prostate; 4.01 µM in the assay on HOP-62 NSCLC; 4.07 µM with HL-60(TB) leukemia; 5.31 µM in the assay on SNB-19 CNS; 3.11 µM with SF-295 CNS. The TGI was 4.18 µM in the assay on SN12C renal; 3.16 µM in the assay with KM12 colon; 5.78 µM in the assay with OVCAR-4 ovarian; 3.68 µM in the assay with CAKI-1 renal; 3.54 µM in the assay with UACC-62 melanoma; 6.13 µM in the assay on EKVX NSCLC. Also, the TGI was 3.04 µM in the assay on TK-10 renal; 4.12 µM in the assay with SNB-75 CNS; 3.23 µM with MDA-N; 4.35 µM in the assay on SK-MEL-28 melanoma; 3.73 µM in the assay with A498 renal.

`CN(CCCN(C)CCc1ccc(Cl)c(Cl)c1)CCCN1CCCC1`: the TGI in the assay with NCI-H460 lung stood at 5.98 µM; with DU-145 prostate it was 21.4 µM; with HOP-62 NSCLC it was 10.5 µM; in the assay with HL-60(TB) leukemia, 4.12 µM; in the assay with SNB-19 CNS, 13.7 µM; in the assay with SF-295 CNS, 4.76 µM. Also, the TGI turned out to be 11.8 µM in the assay with SN12C renal; 7.99 µM with KM12 colon; 20.5 µM with OVCAR-4 ovarian; 6.33 µM in the assay with CAKI-1 renal; 3.49 µM in the assay with UACC-62 melanoma; 13.7 µM with EKVX NSCLC. Besides, the TGI is 5.52 µM in the assay on TK-10 renal; 8.91 µM with SNB-75 CNS; 2.65 µM in the assay with MDA-N; 3.18 µM in the assay on SK-MEL-28 melanoma; 3.37 µM in the assay with A498 renal.

With `O=C(/C=C/c1ccccc1)CSc1nc2ccc(I)cc2c(=O)n1Cc1ccccc1`, the TGI with NCI-H460 lung was more than 100 µM; with DU-145 prostate, more than 100 µM; in the assay with HOP-62 NSCLC, 59.1 µM; in the assay on HL-60(TB) leukemia, 57.2 µM; in the assay with SNB-19 CNS, more than 100 µM; with SF-295 CNS it was more than 70.6 µM. For the same compound, the TGI in the assay on SN12C renal was 30.8 µM; in the assay with KM12 colon it was more than 100 µM; in the assay with OVCAR-4 ovarian, more than 100 µM; in the assay on CAKI-1 renal it was 3.74 µM; in the assay with UACC-62 melanoma, more than 100 µM; in the assay with EKVX NSCLC, more than 37.2 µM. The TGI in the assay on TK-10 renal is more than 84.6 µM; in the assay with SNB-75 CNS it was more than 95.7 µM; in the assay on MDA-N, more than 100 µM; with SK-MEL-28 melanoma, more than 100 µM; with A498 renal it was 46.4 µM.

Consider `COC(=O)CC(=O)Nc1sccc1S(=O)(=O)c1ccccc1`, for which the TGI with NCI-H460 lung, with DU-145 prostate, in the assay with HL-60(TB) leukemia, in the assay with SNB-19 CNS, with SF-295 CNS and with SN12C renal was more than 100 µM in each case. Besides, the TGI in the assay with KM12 colon, in the assay with OVCAR-4 ovarian, with CAKI-1 renal, with UACC-62 melanoma, in the assay on EKVX NSCLC and in the assay with TK-10 renal was more than 100 µM in each case. Further, the TGI in the assay on SNB-75 CNS, with MDA-N, with SK-MEL-28 melanoma and in the assay with A498 renal was more than 100 µM each time.

Take `C/C(CC1SCCCS1)=C(/C)CC1SCCCS1`: the TGI in the assay with NCI-H460 lung, in the assay with DU-145 prostate, with HOP-62 NSCLC, in the assay with HL-60(TB) leukemia, in the assay with SNB-19 CNS and in the assay with SF-295 CNS was more than 100 µM in each case. For the same compound, the TGI with SN12C renal, in the assay with KM12 colon, with OVCAR-4 ovarian, with CAKI-1 renal, in the assay with UACC-62 melanoma and in the assay with EKVX NSCLC was more than 100 µM each time. Moreover, the TGI with TK-10 renal, with SNB-75 CNS, in the assay with MDA-N, with SK-MEL-28 melanoma and with A498 renal was more than 100 µM throughout.

As for `CC(C)CC(NC(=O)C(CCI)Cc1ccccc1)C(=O)Nc1ccccc1` (centres undefined), the TGI with NCI-H460 lung is more than 100 µM; in the assay on DU-145 prostate, more than 100 µM; in the assay with HL-60(TB) leukemia it was 64.6 µM; in the assay on SNB-19 CNS it was more than 100 µM; with SF-295 CNS, more than 100 µM; in the assay with SN12C renal it was more than 100 µM. Besides, the TGI with KM12 colon, in the assay on OVCAR-4 ovarian, in the assay on CAKI-1 renal, in the assay with UACC-62 melanoma, in the assay with EKVX NSCLC and with TK-10 renal was more than 100 µM throughout. In addition, the TGI in the assay with SNB-75 CNS, with MDA-N, in the assay with SK-MEL-28 melanoma and in the assay on A498 renal was more than 100 µM in each case.
